Assay [1] has as its target T1, c-KIT (Homo sapiens, UniProt P10721).
T1 construct: purchased Millipore 14-559K
Kind of assay: AlphaScreen kinase assay with recombinant enzyme, c-KIT. It counts as biochemical. Conditions: 100ATP, 8pt, GMean. In a few lines:
(§1)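 Read-out: AlphaScreen proximity signal at 580 nm (680 nm excitation), lost as peptide tyrosine phosphorylation falls. Substrate Biotin-GG(EEEEY)10EE at 30 nM; IC50 runs at 10 μM (FLT3 mutants) or 100 μM (c-KIT) final. Donor beads 20 min, then acceptor beads 60 min, room temperature.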
Background: Alpha assays give light when donor and acceptor beads are brought close together.

Assay [2] concerns the target T2, FLT3-ITD (Homo sapiens, UniProt P36888).
T2 sequence (P36888 1-993): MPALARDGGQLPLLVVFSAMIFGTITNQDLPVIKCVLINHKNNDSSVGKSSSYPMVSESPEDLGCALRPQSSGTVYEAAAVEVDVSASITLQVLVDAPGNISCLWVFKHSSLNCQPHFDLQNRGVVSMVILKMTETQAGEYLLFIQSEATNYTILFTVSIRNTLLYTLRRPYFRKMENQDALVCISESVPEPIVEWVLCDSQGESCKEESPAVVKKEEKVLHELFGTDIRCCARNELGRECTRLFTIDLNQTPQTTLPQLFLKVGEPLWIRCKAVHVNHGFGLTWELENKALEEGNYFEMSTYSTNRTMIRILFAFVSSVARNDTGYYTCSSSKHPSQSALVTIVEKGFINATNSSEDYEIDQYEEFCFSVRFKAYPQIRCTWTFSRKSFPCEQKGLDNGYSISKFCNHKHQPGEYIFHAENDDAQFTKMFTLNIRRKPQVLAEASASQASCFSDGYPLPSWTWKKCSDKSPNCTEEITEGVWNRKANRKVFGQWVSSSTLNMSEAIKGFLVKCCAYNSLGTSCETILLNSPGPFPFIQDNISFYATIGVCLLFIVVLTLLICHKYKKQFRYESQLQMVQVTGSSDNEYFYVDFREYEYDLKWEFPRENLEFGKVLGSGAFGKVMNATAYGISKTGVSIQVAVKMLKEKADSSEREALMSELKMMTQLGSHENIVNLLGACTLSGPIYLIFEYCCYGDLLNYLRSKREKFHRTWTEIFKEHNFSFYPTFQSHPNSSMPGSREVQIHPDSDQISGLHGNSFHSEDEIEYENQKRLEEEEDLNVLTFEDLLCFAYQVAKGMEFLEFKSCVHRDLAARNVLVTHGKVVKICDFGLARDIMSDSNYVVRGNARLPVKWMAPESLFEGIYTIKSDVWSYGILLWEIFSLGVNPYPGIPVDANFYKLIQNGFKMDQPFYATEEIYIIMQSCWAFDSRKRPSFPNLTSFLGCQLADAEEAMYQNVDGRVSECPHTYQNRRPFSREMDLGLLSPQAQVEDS
Kind of assay: AlphaScreen kinase assay with recombinant enzyme, FLT3-ITD. The format is biochemical. Conditions: 8pt; read-out: FLT3_ITD 8pt: IC50. In a few lines:
as §1

Molecules are shown by their SMILES.

T1 sequence (P10721 26-976): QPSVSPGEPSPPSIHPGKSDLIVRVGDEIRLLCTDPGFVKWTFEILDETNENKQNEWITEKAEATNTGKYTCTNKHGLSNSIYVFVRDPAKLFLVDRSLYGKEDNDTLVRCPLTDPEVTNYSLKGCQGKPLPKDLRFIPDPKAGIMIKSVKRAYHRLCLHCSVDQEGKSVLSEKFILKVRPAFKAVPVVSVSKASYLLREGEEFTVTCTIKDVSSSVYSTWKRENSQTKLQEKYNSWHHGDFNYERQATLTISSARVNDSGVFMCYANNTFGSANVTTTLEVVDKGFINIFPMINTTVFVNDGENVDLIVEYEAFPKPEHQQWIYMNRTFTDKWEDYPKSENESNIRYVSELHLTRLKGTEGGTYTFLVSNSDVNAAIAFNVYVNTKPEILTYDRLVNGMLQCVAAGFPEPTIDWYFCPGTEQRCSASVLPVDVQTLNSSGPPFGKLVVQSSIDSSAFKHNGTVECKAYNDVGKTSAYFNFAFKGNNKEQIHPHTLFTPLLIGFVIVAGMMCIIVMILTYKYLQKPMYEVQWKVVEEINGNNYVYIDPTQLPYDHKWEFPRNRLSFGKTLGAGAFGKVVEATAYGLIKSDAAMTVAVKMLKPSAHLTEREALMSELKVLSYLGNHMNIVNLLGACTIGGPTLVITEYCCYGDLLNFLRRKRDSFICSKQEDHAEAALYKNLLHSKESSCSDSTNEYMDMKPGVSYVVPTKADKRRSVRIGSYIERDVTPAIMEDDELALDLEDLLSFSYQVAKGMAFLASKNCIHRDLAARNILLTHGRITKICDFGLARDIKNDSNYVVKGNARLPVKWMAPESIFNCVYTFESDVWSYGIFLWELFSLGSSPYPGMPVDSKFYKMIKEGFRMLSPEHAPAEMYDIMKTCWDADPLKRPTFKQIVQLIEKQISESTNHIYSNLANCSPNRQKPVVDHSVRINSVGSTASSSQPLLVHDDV

One may read the IC50 as the concentration that inhibits the measured activity by half. Regarding `CNC1CCN(C(=O)c2cccc(-c3cnc4[nH]c(-c5cccc(C#N)c5)cc4c3)n2)C1` (stereo not drawn) [Compound P-0062, 3-[5-[6-[3-(methylamino)pyrrolidine-1-carbonyl]-2-pyridyl]-1H-pyrrolo[2,3-b]pyridin-2-yl]benzonitrile], the half-maximal inhibitory concentration (IC50) in assay [1] lay in the range of 10 to 50 µM; in assay [2] it was 0.0001 to 10 µM.
Turning to `CNC1CCN(S(=O)(=O)c2cccc(-c3cnc4[nH]c(-c5ccccc5)cc4c3)n2)C1` (stereo not drawn) [Compound P-0063, N-methyl-1-[[6-(2-phenyl-1H-pyrrolo[2,3-b]pyridin-5-yl)-2-pyridyl]sulfonyl]pyrrolidin-3-amine], the half-inhibitory concentration (IC50) in assay [1] and in assay [2] was 0.0001 to 10 µM each time.
Take `CN1CCC(NC(=O)c2cccc(-c3cnc4[nH]c(-c5ccccc5)cc4c3)n2)C1` (stereo not drawn) [Compound P-0064, N-(1-methylpyrrolidin-3-yl)-6-(2-phenyl-1H-pyrrolo[2,3-b]pyridin-5-yl)pyridine-2-carboxamide]: the IC50 in assay [1] and in assay [2] was 0.0001 to 10 µM in each case.
With `CNC1CCN(C(=O)c2cccc(-c3cnc4[nH]c(C5=CCC(C)(C)CC5)cc4c3)n2)C1` (stereo not drawn) [Compound P-0070, [6-[2-(4,4-dimethylcyclohexen-1-yl)-1H-pyrrolo[2,3-b]pyridin-5-yl]-2-pyridyl]-[3-(methylamino)pyrrolidin-1-yl]methanone], the IC50 in assay [1] and in assay [2] was 0.0001 to 10 µM each time.
In the case of `O=S(=O)(NC1CNC1)c1cccc(-c2cnc3[nH]c(-c4ccccc4)cc3c2)n1` [Compound P-0071, N-(azetidin-3-yl)-6-(2-phenyl-1H-pyrrolo[2,3-b]pyridin-5-yl)pyridine-2-sulfonamide], the figures for the IC50 in assay [1] and in assay [2] were 10 to 50 µM and 0.0001 to 10 µM, respectively.
With `O=S(=O)(NC1CCNC1)c1cccc(-c2cnc3[nH]c(-c4ccccc4)cc3c2)n1` (stereo not drawn) [Compound P-0072, 6-(2-phenyl-1H-pyrrolo[2,3-b]pyridin-5-yl)-N-pyrrolidin-3-yl-pyridine-2-sulfonamide], the half-inhibitory concentration (IC50) in assay [1] and in assay [2] was 0.0001 to 10 µM each time.
For the compound `NC1CCN(S(=O)(=O)c2cccc(-c3cnc4[nH]c(-c5ccccc5)cc4c3)n2)CC1` [Compound P-0073, 1-[[6-(2-phenyl-1H-pyrrolo[2,3-b]pyridin-5-yl)-2-pyridyl]sulfonyl]piperidin-4-amine], the half-maximal inhibitory concentration (IC50) in assay [1] and in assay [2] was 0.0001 to 10 µM in each case.
In the case of `O=C(Nc1cccc(-c2cnc3[nH]c(-c4ccccc4)cc3c2)n1)C1CNC1` [Compound P-0084, N-[6-(2-phenyl-1H-pyrrolo[2,3-b]pyridin-5-yl)-2-pyridyl]azetidine-3-carboxamide], the half-inhibitory concentration (IC50) in assay [1] and in assay [2] was 0.0001 to 10 µM each time.
`O=C(c1cccc(-c2cnc3[nH]c(-c4ccccc4)cc3c2)n1)N1CCC(NC2CC2)C1` (stereo not drawn) [Compound P-0085, [3-(cyclopropylamino)pyrrolidin-1-yl]-[6-(2-phenyl-1H-pyrrolo[2,3-b]pyridin-5-yl)-2-pyridyl]methanone]: the half-maximal inhibitory concentration (IC50) in assay [1] and in assay [2] was 0.0001 to 10 µM in each case.
Consider `O=S(=O)(NC1CCNCC1)c1cccc(-c2cnc3[nH]c(-c4ccccc4)cc3c2)n1` [Compound P-0086, 6-(2-phenyl-1H-pyrrolo[2,3-b]pyridin-5-yl)-N-(4-piperidyl)pyridine-2-sulfonamide], for which the 50% inhibitory concentration (IC50) in assay [1] and in assay [2] was 0.0001 to 10 µM throughout.
In the case of `NC1CCC(NS(=O)(=O)c2cccc(-c3cnc4[nH]c(-c5ccccc5)cc4c3)n2)CC1` (stereo not drawn) [Compound P-0088, N-(4-aminocyclohexyl)-6-(2-phenyl-1H-pyrrolo[2,3-b]pyridin-5-yl)pyridine-2-sulfonamide], the 50% inhibitory concentration (IC50) in assay [1] and in assay [2] was 0.0001 to 10 µM in each case.
As for `O=C(c1cccc(-c2cnc3[nH]c(-c4ccccc4)cc3c2)n1)N1CC(F)(F)C1` [Compound P-0090, (3,3-difluoroazetidin-1-yl)-[6-(2-phenyl-1H-pyrrolo[2,3-b]pyridin-5-yl)-2-pyridyl]methanone], the results for the IC50 in assay [1] and in assay [2] were 50 to 100 µM and 0.0001 to 10 µM, respectively.
